Biological target: T1, human TRPV1 (Homo sapiens, UniProt Q8NER1)
T1 construct: expressed in transfected cells; host or cells: CHO-K1
Test: Measurement of capsaicin-induced Ca influx in human TRPV1 transformed CHO cell line using FDSS-6000
Format: cell-based
Settings: concentration at which the capsaicin concentration-reaction curve is shifted two times to the right, human TRPV1 transformed CHO cells
From the text: [Measurement of Capsaicin-Induced Ca Influx in Human TRPV1 Transformed CHO Cell Line]
(1) Establishment of Human TRPV1 Transformed CHO Cell Line
Human vanilloid receptor 1 (hTRPV1) cDNA was cloned from a human brain. The cloned hTRPV1 cDNA was incorporated in a pCAGGS vector. The gene of the vector was introduced to a CHO-K1 cell line, thus performing transformation. Clones obtained by limiting dilution were stimulated with capsaicin. Clones with a high responsiveness were selected using an increase in the Ca concentration as an indicator. The selected clones were used for the following experiment.
(2) Measurement of Ca Influx Using FDSS-6000
The human TRPV1 transformed CHO cells were seeded in a 96-well plate (with black walls and transparent bottoms, manufactured by Greiner) at a density of 40,000 cells per well. The cells were cultured at 37° C. in 5% CO2 for one night. A loading solution of FLIPR Calcium 3 assay kit (manufactured by Molecular Devices Corporation) containing 2.5 mmol/L of probenecid was then added to each of the wells in the same amount as the culture medium, and the cells were cultured at 37° C. for 60 minutes. After the cells were stimulated with capsaicin (1 nmol/L to 1 μmol/L), the change in the Ca concentration in the cells was measured using FDSS-6000 (λex: 480 nm, λem: 540 nm, manufactured by Hamamatsu Photonics K.K.) for three minutes. The integrated values of the increase rate of the Ca concentration in the cells were calculated for a group treated with the compounds of the present invention and a group treated with a medium, thus allowing capsaicin concentration-reaction curves to be obtained. A concentration (A2 value) of each of the compounds of the present invention, at which the capsaicin concentration-reaction curve obtained when the cells were treated with the medium was shifted two times to the right side, was calculated. The inhibiting effects of the test compounds were compared using this value as an indicator.
In the case where a compound of the present invention is an agonist, when the cells are treated with the compound of the present invention prior to the capsaicin stimulation, the Ca influx is observed. In Table 1, compounds of the present invention having an A2 value of less than 100 nM are represented by A, and compounds having an A2 value of 100 nM or more are represented by B. When the A2 values of the compounds of the present invention were measured by the above-described method, the compounds have an intensity of 1 μM or less.

T1 sequence (Q8NER1 whole entry): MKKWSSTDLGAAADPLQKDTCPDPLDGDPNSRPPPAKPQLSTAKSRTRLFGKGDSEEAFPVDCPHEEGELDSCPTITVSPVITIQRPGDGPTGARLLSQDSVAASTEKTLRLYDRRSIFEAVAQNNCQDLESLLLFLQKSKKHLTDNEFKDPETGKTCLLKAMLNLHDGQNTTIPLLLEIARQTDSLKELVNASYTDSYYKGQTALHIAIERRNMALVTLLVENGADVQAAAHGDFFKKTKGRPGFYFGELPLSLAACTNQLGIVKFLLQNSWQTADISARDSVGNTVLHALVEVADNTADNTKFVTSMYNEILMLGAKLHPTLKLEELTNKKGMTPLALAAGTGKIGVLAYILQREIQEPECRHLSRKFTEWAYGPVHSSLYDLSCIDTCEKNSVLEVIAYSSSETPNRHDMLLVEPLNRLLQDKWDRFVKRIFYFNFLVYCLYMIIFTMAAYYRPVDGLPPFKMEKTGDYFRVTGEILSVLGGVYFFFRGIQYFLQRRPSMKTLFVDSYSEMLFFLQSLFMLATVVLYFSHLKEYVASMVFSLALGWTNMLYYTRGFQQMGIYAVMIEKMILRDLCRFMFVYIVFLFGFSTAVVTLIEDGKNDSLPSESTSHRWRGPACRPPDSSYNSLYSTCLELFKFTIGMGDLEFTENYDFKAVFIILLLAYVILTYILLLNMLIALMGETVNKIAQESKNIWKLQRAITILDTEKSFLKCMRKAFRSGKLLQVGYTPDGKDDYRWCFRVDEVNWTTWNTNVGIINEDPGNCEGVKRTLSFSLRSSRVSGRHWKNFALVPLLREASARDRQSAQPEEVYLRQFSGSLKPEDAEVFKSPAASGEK

| Structure (SMILES) | A2 VALUE |
| --- | --- |
| O=C1CCc2cccc(NC(=O)/C=C3\CCCOc4cc(C(F)(F)F)ccc43)c2C1 [Example 61, (E)-2-(8-trifluoromethyl-3,4-dihydrobenzo[b]oxepin-5(2H)-ylidene)-N-(7-oxo-5,6,7,8-tetrahydronaphthalen-1-yl)acetamide] | A (compounds of the present invention having an A2 value of less than 100 nM are represented by A) |
| CN1CCC/C(=C\C(=O)Nc2ccc3cccnc3c2)c2ccc(C(F)(F)F)cc21 [Example 196, (E)-2-(1-methyl-8-trifluoromethyl-1,2,3,4-tetrahydro-5H-benzo[b]azepin-5-ylidene)-N-(quinolin-7-yl)acetamide] | A (compounds of the present invention having an A2 value of less than 100 nM are represented by A) |
| CCCC(C)(C)C(=O)N1CC/C(=C\C(=O)Nc2ccc3cccnc3c2)c2ccc(C(F)(F)F)cc21 [Example 81, (E)-2-(1-(2,2-dimethylpentanoyl)-7-trifluoromethyl-2,3-dihydroquinolin-4(1H)-ylidene)-N-(quinolin-7-yl)acetamide] | A (compounds of the present invention having an A2 value of less than 100 nM are represented by A) |
| O=C(/C=C1\CCCOc2cc(C(F)(F)F)ccc21)Nc1ccc2ccc(=O)[nH]c2c1 [Example 134, (E)-2-(8-trifluoromethyl-3,4-dihydrobenzo[b]oxepin-5(2H)-ylidene)-N-(2-quinolon-7-yl)acetamide] | A (compounds of the present invention having an A2 value of less than 100 nM are represented by A) |
| O=C(/C=C1\CCCOc2cc(C(F)(F)F)ccc21)Nc1ccc2c(c1)NCCC2 [Example 167, (E)-2-(8-trifluoromethyl-3,4-dihydrobenzo[b]oxepin-5(2H)-ylidene)-N-(1,2,3,4-tetrahydroquinolin-7-yl)acetamide] | A (compounds of the present invention having an A2 value of less than 100 nM are represented by A) |
| O=C(/C=C1\CCN(C(=O)C2CCC2)c2cc(C(F)(F)F)ccc21)Nc1cccc2c1CC(O)CC2 (stereo not shown) [Example 84, (E)-2-(1-cyclobutanecarbonyl-7-trifluoromethyl-2,3-dihydroquinolin-4(1H)-ylidene)-N-(7-hydroxy-5,6,7,8-tetrahydronaphthalen-1-yl)acetamide] | A (compounds of the present invention having an A2 value of less than 100 nM are represented by A) |
| O=C(/C=C1\CCCOc2cc(C(F)(F)F)ccc21)Nc1cccc2[nH]ncc12 [Example 253, (E)-2-(8-trifluoromethyl-3,4-dihydrobenzo[b]oxepin-5(2H)-ylidene)-N-(1H-indazol-4-yl)acetamide] | A (compounds of the present invention having an A2 value of less than 100 nM are represented by A) |
| O=C(/C=C1\CCCOc2cc(C(F)(F)F)ccc21)Nc1ccc2c(c1)C(=O)N(CCO)C2 [Example 176, (E)-2-(8-trifluoromethyl-3,4-dihydrobenzo[b]oxepin-5(2H)-ylidene)-N-(2-hydroxyethyl-2,3-dihydro-isoindol-1-on-6-yl)acetamide] | B (compounds having an A2 value of 100 nM or more are represented by B) |
| O=C(/C=C1\CCCOc2cc(C(F)(F)F)ccc21)Nc1cccc2c1CC(O)C(O)C2 (stereo not drawn) [Example 66, (E)-2-(8-trifluoromethyl-3,4-dihydrobenzo[b]oxepin-5-(2H)-ylidene)-N-(cis-6,7-dihydroxy-5,6,7,8-tetrahydronaphthalen-1-yl)acetamide] | A (compounds of the present invention having an A2 value of less than 100 nM are represented by A) |
| O=C(/C=C1\CCCOc2cc(C(F)(F)F)ccc21)Nc1ccc2c(c1)OCO2 [Example 144, (E)-2-(8-trifluoromethyl-3,4-dihydrobenzo[b]oxepin-5(2H)-ylidene)-N-(1,3-benzodioxol-5-yl)acetamide] | A (compounds of the present invention having an A2 value of less than 100 nM are represented by A) |
| O=C(/C=C1\CCOc2cc(C(F)(F)F)ccc21)Nc1cccc2ccc(O)cc12 [Example 120, (E)-N-(7-hydroxynaphthalen-1-yl)-2-(7-trifluoromethyl-chroman-4-ylidene)acetamide] | A (compounds of the present invention having an A2 value of less than 100 nM are represented by A) |
| O=C(/C=C1\CCCOc2cc(C(F)(F)F)ccc21)Nc1cccc2cn[nH]c12 [Example 254, (E)-2-(8-trifluoromethyl-3,4-dihydrobenzo[b]oxepin-5(2H)-ylidene)-N-(1H-indazol-7-yl)acetamide] | A (compounds of the present invention having an A2 value of less than 100 nM are represented by A) |
| O=C(/C=C1\CCN(C(=O)C2CCC(F)(F)CC2)c2cc(C(F)(F)F)ccc21)Nc1cccc2c1CC(O)CC2 (stereo not shown) [Example 85, (E)-2-(1-(4,4-difluorocyclohexanecarbonyl)-7-trifluoromethyl-2,3-dihydroquinolin-4(1H)-ylidene)-N-(7-hydroxy-5,6,7,8-tetrahydronaphthalen-1-yl)acetamide] | A (compounds of the present invention having an A2 value of less than 100 nM are represented by A) |
| O=C(/C=C1\CCCOc2cc(C(F)(F)F)ccc21)Nc1ccc(Cc2ccncc2)cc1 [Example 29, (E)-2-(8-trifluoromethyl-3,4-dihydrobenzo[b]oxepin-5(2H)-ylidene)-N-(4-((pyridin-4-yl)methyl)phenyl)acetamide] | B (compounds having an A2 value of 100 nM or more are represented by B) |
| O=C(/C=C1\CCN(C(=O)C2(F)CCCC2)c2cc(C(F)(F)F)ccc21)Nc1cccc2c1CC(O)CC2 (stereo not shown) [Example 115, (E)-2-(1-(1-fluorocyclopentanecarbonyl)-7-trifluoromethyl-2,3-dihydroquinolin-4(1H)-ylidene)-N-(7-hydroxy-5,6,7,8-tetrahydronaphthalen-1-yl)acetamide] | A (compounds of the present invention having an A2 value of less than 100 nM are represented by A) |
| O=C(/C=C1\CCCOc2cc(C(F)(F)F)ccc21)Nc1n[nH]c2ccccc12 [Example 42, (E)-2-(8-trifluoromethyl-3,4-dihydrobenzo[b]oxepin-5(2H)-ylidene)-N-(1H-indazol-3-yl)acetamide] | B (compounds having an A2 value of 100 nM or more are represented by B) |
| CC(C)(C)c1ccc2c(c1)OCC/C2=C\C(=O)Nc1cccc2cnccc12 [Example 4, (E)-2-(7-tert-butyl-chroman-4-ylidene)-N-(isoquinolin-5-yl)acetamide] | A (compounds of the present invention having an A2 value of less than 100 nM are represented by A) |
| O=C(/C=C1\CCN(C2CCCCC2)c2cc(C(F)(F)F)ccc21)Nc1ccc2cccnc2c1 [Example 97, (E)-2-(7-trifluoromethyl-2,3-dihydro-1-cyclohexylquinolin-4(1H)-ylidene)-N-(quinolin-7-yl)acetamide] | A (compounds of the present invention having an A2 value of less than 100 nM are represented by A) |
| O=C(/C=C1/CCCOc2cc(C(F)(F)F)ccc21)Nc1ccc2cccnc2c1 [Example 247, (Z)-2-(8-trifluoromethyl-3,4-dihydrobenzo[b]oxepin-5(2H)-ylidene)-N-(quinolin-7-yl)acetamide] | A (compounds of the present invention having an A2 value of less than 100 nM are represented by A) |

Reference: patent US7910751B2, “Heterocyclidene acetamide derivative” (Mochida Pharmaceutical Co., Ltd., priority 2005, dated 2011)
